Measurements taken from PMC4102924 (Science translational medicine, 2013).

Biological target: PDK2 (pyruvate dehydrogenase kinase 2) (Homo sapiens, UniProt Q15119)
Assay: radiometric kinase assay with recombinant PDK2
Type: biochemical

SMILES: O=C(O)CCCc1ccccc1 [phenylbutyrate]
- Ki: 330 ± 80 µM
